Measured values taken from ChEMBL document CHEMBL4420075, “Seriniquinones, melanoma-specific anticancer agents” (2016).

Legend:
Format in all cases: functional
SN12C = assay: Growth inhibition of human SN12C cells assessed as cell growth incubated for 48 hrs by sulforhodamine B assay; parameters: concentration or dose not given beside the values
A498 = assay: Growth inhibition of human A498 cells assessed as cell growth incubated for 48 hrs by sulforhodamine B assay; parameters: concentration or dose not given beside the values
Malme-3M = assay: Growth inhibition of human MALME-3M cells assessed as cell growth incubated for 48 hrs by sulforhodamine B assay; parameters: scale not given: the % may be the effect or the level left
SNB-19 = assay: Growth inhibition of human SNB19 cells assessed as cell growth incubated for 48 hrs by sulforhodamine B assay; parameters: concentration or dose not given beside the values
MDA-MB-435 = assay: Growth inhibition of human MDA-MB-435 cells assessed as cell growth incubated for 48 hrs by sulforhodamine B assay; parameters: concentration or dose not given beside the values
HCC 2998 = assay: Growth inhibition of human HCC2998 cells assessed as cell growth incubated for 48 hrs by sulforhodamine B assay; parameters: concentration or dose not given beside the values
HT-29 = assay: Growth inhibition of human HT-29 cells assessed as cell growth incubated for 48 hrs by sulforhodamine B assay; parameters: concentration or dose not given beside the values
NCI-H23 = assay: Growth inhibition of human NCI-H23 cells assessed as cell growth incubated for 48 hrs by sulforhodamine B assay; parameters: concentration or dose not given beside the values
COLO 205 = assay: Growth inhibition of human COLO205 cells assessed as cell growth incubated for 48 hrs by sulforhodamine B assay; parameters: concentration or dose not given beside the values
OVCAR-5 = assay: Growth inhibition of human OVCAR5 cells assessed as cell growth incubated for 48 hrs by sulforhodamine B assay; parameters: scale not given: the % may be the effect or the level left
UO-31 = assay: Growth inhibition of human UO31 cells assessed as cell growth incubated for 48 hrs by sulforhodamine B assay; parameters: concentration or dose not given beside the values
HL-60(TB) = assay: Growth inhibition of human HL-60(TB) cells assessed as cell growth incubated for 48 hrs by sulforhodamine B assay; parameters: concentration or dose not given beside the values
HOP-92 = assay: Growth inhibition of human HOP92 cells assessed as cell growth incubated for 48 hrs by sulforhodamine B assay; parameters: concentration or dose not given beside the values
SK-MEL-28 = assay: Growth inhibition of human SK-MEL-28 cells assessed as cell growth incubated for 48 hrs by sulforhodamine B assay; parameters: concentration or dose not given beside the values
SK-OV-3 = assay: Growth inhibition of human SKOV3 cells assessed as cell growth incubated for 48 hrs by sulforhodamine B assay; parameters: concentration or dose not given beside the values
OVCAR-8 = assay: Growth inhibition of human OVCAR8 cells assessed as cell growth incubated for 48 hrs by sulforhodamine B assay; parameters: concentration or dose not given beside the values
MCF7 = assay: Growth inhibition of human MCF7 cells assessed as cell growth incubated for 48 hrs by sulforhodamine B assay; parameters: concentration or dose not given beside the values
SK-MEL-5 = assay: Growth inhibition of human SK-MEL-5 cells assessed as cell growth incubated for 48 hrs by sulforhodamine B assay; parameters: concentration or dose not given beside the values
SW-620 = assay: Growth inhibition of human SW620 cells assessed as cell growth incubated for 48 hrs by sulforhodamine B assay; parameters: concentration or dose not given beside the values
RXF 393 = assay: Growth inhibition of human RXF393 cells assessed as cell growth incubated for 48 hrs by sulforhodamine B assay; parameters: concentration or dose not given beside the values
MDA-MB-231 = assay: Growth inhibition of human MDA-MB-231 cells assessed as cell growth incubated for 48 hrs by sulforhodamine B assay; parameters: concentration or dose not given beside the values
LOX IMVI = assay: Growth inhibition of human LOXIMVI cells assessed as cell growth incubated for 48 hrs by sulforhodamine B assay; parameters: concentration or dose not given beside the values
HCT-15 = assay: Growth inhibition of human HCT15 cells assessed as cell growth incubated for 48 hrs by sulforhodamine B assay; parameters: scale not given: the % may be the effect or the level left
786-0 = assay: Growth inhibition of human 786-0 cells assessed as cell growth incubated for 48 hrs by sulforhodamine B assay; parameters: concentration or dose not given beside the values
MOLT-4 = assay: Growth inhibition of human MOLT4 cells assessed as cell growth incubated for 48 hrs by sulforhodamine B assay; parameters: concentration or dose not given beside the values
IGROV-1 = assay: Growth inhibition of human IGROV1 cells assessed as cell growth incubated for 48 hrs by sulforhodamine B assay; parameters: scale not given: the % may be the effect or the level left
MDA-MB-468 = assay: Growth inhibition of human MDA-MB-468 cells assessed as cell growth incubated for 48 hrs by sulforhodamine B assay; parameters: concentration or dose not given beside the values
SF-539 = assay: Growth inhibition of human SF539 cells assessed as cell growth incubated for 48 hrs by sulforhodamine B assay; parameters: scale not given: the % may be the effect or the level left
SF-268 = assay: Growth inhibition of human SF268 cells assessed as cell growth incubated for 48 hrs by sulforhodamine B assay; parameters: concentration or dose not given beside the values
UACC-257 = assay: Growth inhibition of human UACC257 cells assessed as cell growth incubated for 48 hrs by sulforhodamine B assay; parameters: concentration or dose not given beside the values
NCI/ADR-RES = assay: Growth inhibition of human NCI/ADR-RES cells assessed as cell growth incubated for 48 hrs by sulforhodamine B assay; parameters: concentration or dose not given beside the values
PC-3 = assay: Growth inhibition of human PC3 cells assessed as cell growth incubated for 48 hrs by sulforhodamine B assay; parameters: concentration or dose not given beside the values
RPMI-8226 = assay: Growth inhibition of human RPMI8226 cells assessed as cell growth incubated for 48 hrs by sulforhodamine B assay; parameters: concentration or dose not given beside the values
DU-145 = assay: Growth inhibition of human DU145 cells assessed as cell growth incubated for 48 hrs by sulforhodamine B assay; parameters: concentration or dose not given beside the values
NCI-H226 = assay: Growth inhibition of human NCI-H226 cells assessed as cell growth incubated for 48 hrs by sulforhodamine B assay; parameters: concentration or dose not given beside the values
CAKI-1 = assay: Growth inhibition of human Caki1 cells assessed as cell growth incubated for 48 hrs by sulforhodamine B assay; parameters: concentration or dose not given beside the values
ACHN = assay: Growth inhibition of human ACHN cells assessed as cell growth incubated for 48 hrs by sulforhodamine B assay; parameters: scale not given: the % may be the effect or the level left
CCRF-CEM = assay: Growth inhibition of human CCRF-CEM cells assessed as cell growth incubated for 48 hrs by sulforhodamine B assay; parameters: concentration or dose not given beside the values
M14 = assay: Growth inhibition of human M14 cells assessed as cell growth incubated for 48 hrs by sulforhodamine B assay; parameters: concentration or dose not given beside the values
HOP-62 = assay: Growth inhibition of human HOP62 cells assessed as cell growth incubated for 48 hrs by sulforhodamine B assay; parameters: concentration or dose not given beside the values
SR = assay: Growth inhibition of human SR cells assessed as cell growth incubated for 48 hrs by sulforhodamine B assay; parameters: concentration or dose not given beside the values
NCI-H322M = assay: Growth inhibition of human NCI-H322M cells assessed as cell growth incubated for 48 hrs by sulforhodamine B assay; parameters: scale not given: the % may be the effect or the level left
TK-10 = assay: Growth inhibition of human TK10 cells assessed as cell growth incubated for 48 hrs by sulforhodamine B assay; parameters: concentration or dose not given beside the values
T47D = assay: Growth inhibition of human T47D cells assessed as cell growth incubated for 48 hrs by sulforhodamine B assay; parameters: concentration or dose not given beside the values
OVCAR-4 = assay: Growth inhibition of human OVCAR4 cells assessed as cell growth incubated for 48 hrs by sulforhodamine B assay; parameters: concentration or dose not given beside the values
HCT-116 = assay: Growth inhibition of human HCT116 cells assessed as cell growth incubated for 48 hrs by sulforhodamine B assay; parameters: concentration or dose not given beside the values
SF-295 = assay: Growth inhibition of human SF295 cells assessed as cell growth incubated for 48 hrs by sulforhodamine B assay; parameters: concentration or dose not given beside the values
KM12 = assay: Growth inhibition of human KM12 cells assessed as cell growth incubated for 48 hrs by sulforhodamine B assay; parameters: concentration or dose not given beside the values
SNB-75 = assay: Growth inhibition of human SNB75 cells assessed as cell growth incubated for 48 hrs by sulforhodamine B assay; parameters: concentration or dose not given beside the values
K562 = assay: Growth inhibition of human K562 cells assessed as cell growth incubated for 48 hrs by sulforhodamine B assay; parameters: concentration or dose not given beside the values
BT-549 = assay: Growth inhibition of human BT549 cells assessed as cell growth incubated for 48 hrs by sulforhodamine B assay; parameters: concentration or dose not given beside the values
A549 = assay: Growth inhibition of human A549/ATCC cells assessed as cell growth incubated for 48 hrs by sulforhodamine B assay; parameters: concentration or dose not given beside the values
OVCAR-3 = assay: Growth inhibition of human OVCAR3 cells assessed as cell growth incubated for 48 hrs by sulforhodamine B assay; parameters: concentration or dose not given beside the values
U-251 = assay: Growth inhibition of human U251 cells assessed as cell growth incubated for 48 hrs by sulforhodamine B assay; parameters: concentration or dose not given beside the values
UACC-62 = assay: Growth inhibition of human UACC62 cells assessed as cell growth incubated for 48 hrs by sulforhodamine B assay; parameters: concentration or dose not given beside the values
NCI-H522 = assay: Growth inhibition of human NCI-H522 cells assessed as cell growth incubated for 48 hrs by sulforhodamine B assay; parameters: concentration or dose not given beside the values
NCI-H460 = assay: Growth inhibition of human NCI-H460 cells assessed as cell growth incubated for 48 hrs by sulforhodamine B assay; parameters: concentration or dose not given beside the values
Hs-578T = assay: Growth inhibition of human Hs 578T cells assessed as cell growth incubated for 48 hrs by sulforhodamine B assay; parameters: concentration or dose not given beside the values
SK-MEL-2 = assay: Growth inhibition of human SK-MEL-2 cells assessed as cell growth incubated for 48 hrs by sulforhodamine B assay; parameters: concentration or dose not given beside the values

SMILES: O=C([O-])CCc1ccc2c(=O)c3sc4c(=O)c5ccccc5c(=O)c4c3c(=O)c2c1.[Na+]
- Activity (SN12C): -86.04%
- Activity (A498): -94.19%
- Activity (Malme-3M): -95.72%
- Activity (SNB-19): -46.21%
- Activity (MDA-MB-435): -79.57%
- Activity (HCC 2998): -78.44%
- Activity (HT-29): -35.38%
- Activity (NCI-H23): -48.38%
- Activity (COLO 205): -95.3%
- Activity (OVCAR-5): -91.27%
- Activity (UO-31): -62.16%
- Activity (HL-60(TB)): -1.51%
- Activity (HOP-92): 21.71%
- Activity (SK-MEL-28): -86.88%
- Activity (SK-OV-3): -20.08%
- Activity (OVCAR-8): -11.99%
- Activity (MCF7): -42.17%
- Activity (SK-MEL-5): -98.11%
- Activity (SW-620): -35.47%
- Activity (RXF 393): -40.51%
- Activity (MDA-MB-231): 7.51%
- Activity (LOX IMVI): -79.48%
- Activity (HCT-15): -51.47%
- Activity (786-0): -36.85%
- Activity (MOLT-4): -18.02%
- Activity (IGROV-1): -45.75%
- Activity (MDA-MB-468): -23.55%
- Activity (SF-539): -99.93%
- Activity (SF-268): -4.66%
- Activity (UACC-257): -93.7%
- Activity (NCI/ADR-RES): -16.65%
- Activity (PC-3): 4.12%
- Activity (RPMI-8226): -23.33%
- Activity (DU-145): -94.06%
- Activity (NCI-H226): -50.22%
- Activity (CAKI-1): -11.28%
- Activity (ACHN): 3.07%
- Activity (CCRF-CEM): -11.89%
- Activity (M14): -92.46%
- Activity (HOP-62): -94.95%
- Activity (SR): -13.25%
- Activity (NCI-H322M): -96.32%
- Activity (TK-10): -13.65%
- Activity (T47D): 30.96%
- Activity (OVCAR-4): 3.01%
- Activity (HCT-116): -11.85%
- Activity (SF-295): -92.24%
- Activity (KM12): -4.86%
- Activity (SNB-75): -92.01%
- Activity (K562): 1.66%
- Activity (BT-549): -93.17%
- Activity (A549): -52.48%
- Activity (OVCAR-3): -20.41%
- Activity (U-251): -19.72%
- Activity (UACC-62): -86.72%
- Activity (NCI-H522): -56.08%
- Activity (NCI-H460): -47.6%
- Activity (Hs-578T): -2.26%
- Activity (SK-MEL-2): -61.62%
